What was measured:
BLECs [1] = assay: RT-qPCR of junctional protein mRNA in BLECs; type: cell-based, human; details: normalized to cyclophilin A, 10 ng·mL^−1, 24 h; for VE-cadherin mRNA level versus control: ΔΔCt
Method: (§1) Each condition was studied in triplicate.
BLECs were washed twice with cold RH buffer, then lysed using RLT lysis buffer (Qiagen, Les Ulis, France). The cell lysates were extracted according to the manufacturer’s instructions “Qiagen RNeasy Mini kit”. Briefly, a volume of cell lysates was mixed with a volume of 70% (v/v) ethanol and placed in a column (Rneasy Mini kit, Qiagen, Les Ulis, France). A first centrifugation was performed to adsorb the RNAs to the column. A series of two rinses with buffer RW1 and a centrifugation (10.000 rpm, 30 s) were performed. Samples were treated with DNase in its RDD buffer for 20 min. Then, another succession of rinses (one with buffer RW1 and two with buffer RPE) and centrifugation (10.000 rpm, 30 s) were performed. Finally, water (RNAse Free) was added to the column to elute the RNAs by centrifugation (13.000 rpm, 2 min at 20 °C). The amount of extracted mRNAs was assayed by spectrophotometry (Synergy H1, Biotek, Colmar, France). Absorbances at 280 nm (proteins) and 260 nm (nucleic acids) were performed. The mRNA concentration was determined from the Beer-Lambert law and the mRNA purity of the sample was assessed with the Absorbance 260 nm/Absorbance 280 nm ratio. This ratio must be close to 2.1 to consider the sample to be with high purity. The mRNA samples were then stored at −80 °C.
Reverse transcription (RT) was performed on the samples containing the extracted mRNAs to obtain cDNAs. A total of 250 ng of mRNA was reverse-transcribed using iScriptTM reverse Transcription Supermix 5X (Biorad, Munich, Germany), containing reverse transcriptase, RNAse inhibitors, RNAse H, dNTPs (nucleoside triphosphates), oligonucleotides (dTs) (deoxy-thymine repeats) and random primers (hexamers of dNTPs randomly binding to mRNAs) and MgCl2). To each microtube, a volume of water (RNAse free) was added to obtain a final volume of 20 µL, then a reverse transcription cycle was performed in the thermal cycler (MJ Research): 5 min at 25 °C (hybridization), 30 min at 42 °C (reverse transcription) and 5 min at 85 °C (reverse transcription inactivation). The cDNA samples were then stored at −20 °C. For each reverse transcription and for each condition, an internal control was performed by adding iScriptTM No-RT control Supermix 5X (Biorad, Munich, Germany), a solution without the reverse transcriptase enzyme (NRT), instead of iScriptTM reverse Transcription Supermix 5X.
The qPCR was performed on a 96-well plate where each sample was deposited in triplicate. To perform qPCR, human-specific primer pairs were drawn for each gene of interest (Table 2).
An efficiency test and a melting curve were performed for each pair of primers used using the CFX Manager software (Biorad, Munich, Germany) allowing for the specificity and efficiency of the primers to be checked. A qPCR of the cDNAs obtained by RT-PCR was performed using the specific primers and a SsoFast^TM Evagreen SuperMix (Biorad, Munich, Germany) containing DNA polymerase, its cofactors, dNTPs and Evagreen® (a fluorochrome that binds to DNA during elongation). The amplification was carried out for 40 cycles with a hybridization temperature of 60 °C. The reaction was performed in a CFX96 Real-Time System thermal cycler (Biorad, Munich, Germany). Gene expression levels were assessed using the ΔΔCt method and normalized to a reference gene, cyclophilin A. The data were then plotted as a percentage against the control condition. Two controls were performed per primer pair: an NRT and a primer hybridization control (NTC), where the sample containing the cDNAs is replaced with water.

BLECs [2] = assay: Effect of cytokines on Aβ1–40Cy5 transcytosis quotient across BLECs; type: cell-based, human; details: cytokine 10 ng·mL^−1 basolateral, 24 h; then 30 min transport at 37 °C; compared to control
Method: As TNF-α and IL-1β modulated the protein expression levels of LRP1, BCRP and PICALM (Figure 4), we investigated the effect of these cytokines on the transport of Aβ peptide across the BBB. After 24 h of treatment with proinflammatory cytokines, the apical-to-basolateral (influx) and basolateral-to-apical (efflux) Aβ1–40Cy5 peptide transports across the BLECs were assessed in the presence of FITC-inulin. The Aβ1–40 peptide was used in all experiments, as it is the most abundant amyloid peptide found on cerebral blood vessels. FITC-inulin was used to determine the nonspecific transcytosis quotient (Figure 5A). Indeed, unlike Aβ peptide, FITC-inulin is not actively cleared at the BBB and acts as a reference marker of paracellular permeability, thus as previously reported.
as §1
After proinflammatory cytokine treatments, the influx (apical-to-basolateral) and the efflux (basolateral-to-apical) transport of Aβ1–40 peptides across BLECs were investigated as previously described. Briefly, for influx studies, inserts with BLECs were transferred to new 12-well plates containing 1.5 mL of RH–HSA 0.1% (the receiver solution) per well. In the insert, 0.5 mL of RH-HSA 0.1% supplemented with 10 nM Aβ1–40Cy5 peptide were added (the donor solution). For efflux studies, inserts with BLECs were transferred to new 12-well plates, this time containing 1.5 mL of RH-has 0.1% with 10 nM fluorescent Aβ1–40Cy5 (the donor solution) peptide, then 0.5 mL of RH-HSA 0.1% (the receiver solution) was added in the insert. […] The BBB integrity was determined by measuring the endothelial permeability of a radioactive integrity marker, ^14C-sucrose, using the same method of calculation as described in Section 4.4. […] At the end of the experiment, aliquots of the receiver and donor solutions were collected, and the fluorescence compounds (Aβ1–40Cy5 peptide and FITC-inulin) were quantified with a spectrofluorimeter (Synergy H1, Biotek, Colmar, France). The radioactivity of ^14C-saccharose was measured using a scintillation counter (Hidex 300 SL, Hidex, Turku, Finland). The apparent permeability coefficients (cm.sec^−1) of Aβ1–40Cy5 peptide and FITC-inulin were calculated as previously described. Once influx and efflux Papp were determined for each molecule, the specific transport of Aβ1–40Cy5 across the BLECs in influx and efflux directions were identified by calculating the transcytosis quotient of Aβ1–40Cy5 using the following formulas: “influx transcytosis quotient of Aβ1–40Cy5 = (influx Aβ1–40Cy5 Papp)/(influx FITC-inulin Papp)” or “efflux transcytosis quotient of Aβ1–40Cy5 = (efflux Aβ1–40Cy5 Papp)/(efflux FITC-inulin Papp)”. For each filter, the mass balance was determined as described in Section 4.4. […]

tumor necrosis factor-α [TNF-α]
decrease of claudin-3 mRNA level compared to control (BLECs [1]): 61.8%
decrease of occludin mRNA level compared to control (BLECs [1]): 66.3%
decrease of tricellulin mRNA level compared to control (BLECs [1]): 68.1%
increase of claudin-5 mRNA expression compared to control (BLECs [1]): 139.4%
VE-cadherin mRNA level versus control (BLECs [1]): not significantly different
apical-to-basolateral transcytosis quotient (specific influx) of Aβ1–40Cy5 peptide (BLECs [2]): not modified
reduction of basolateral-to-apical transcytosis quotient (specific efflux) of Aβ1–40Cy5 peptide (BLECs [2]): 26.9%

interleukin-1β [IL-1β]
decrease of ZO-1 mRNA level compared to control (BLECs [1]): 48.1%
decrease of claudin-3 mRNA level compared to control (BLECs [1]): 81.3%
decrease of occludin mRNA level compared to control (BLECs [1]): 64.0%
decrease of tricellulin mRNA level compared to control (BLECs [1]): 62.8%
increase of claudin-5 mRNA expression compared to control (BLECs [1]): 48.1%
VE-cadherin mRNA level versus control (BLECs [1]): lower
apical-to-basolateral transcytosis quotient (specific influx) of Aβ1–40Cy5 peptide (BLECs [2]): not modified
reduction of basolateral-to-apical transcytosis quotient (specific efflux) of Aβ1–40Cy5 peptide (BLECs [2]): 25.9%

— article PMC9499506, “TNF-α and IL-1β Modulate Blood-Brain Barrier Permeability and Decrease Amyloid-β Peptide Efflux in a Human Blood-Brain Barrier Model” (International Journal of Molecular Sciences, 2022)
